Experimental data: patent US10421779B2, “Carbazole compound having anti-virus activity” (priority 2016, dated 2019)

Tested on: HCV genotype 1 b (HCV replicon system)
Experiment: HCV replicon system genotype 1b, Renilla luciferase activity
Format: cell-based
Details: Hepatitis C virus, 72 h; HCV genotype 1b replicon, Rluc, 3 days; range limits given with own units (pM to nM); read-out: Replicon EC50 1b type
Protocol: From human liver cells (Huh7.5.1 cell) infected by hepatitis C virus, the anti-virus effects by the compound of the present invention were measured. From HCV genotype 1 b (HCV replicon system), genotype 2a (HCV cell culture system, HCVcc), and genotype 3a, the EC50 values were measured.
In order to measure the EC50 value from HCV genotype 1 b, the degrees of HCV replication inhibitory activities of an experimental compound were measured. The EC50 value was measured by treating the experimental compound with the HCV replicon systems (genotype 1 b) having Renilla luciferase (Rluc) genes and genotype 1 b non-structure genes under various concentration conditions to compare the activity degree of the luciferase after 3 days elapsed time with that of the control.

| Structure (SMILES) | EC50 [pM] |
| --- | --- |
| COCCOCCn1c2cc(NC(=O)[C@@H]3CCCN3C(=O)[C@H](NC(=O)OC)c3ccccc3)ccc2c2ccc(NC(=O)[C@@H]3CCCN3C(=O)[C@H](NC(=O)OC)c3ccccc3)cc21 [Example 22, dimethyl ((1R,1′R)-((2S,2′S)-(((9-(2-(2-methoxyethoxy)ethyl)-9H-carbazole-2,7-diyl)bis(azanediyl))bis(carbonyl))bis(pyrrolidine-2,1-diyl))bis(2-oxo-1-phenylethane-2,1-diyl))dicarbamate] | 250 to 1250 |

Same assay, conditions: Hepatitis C virus, 72 h; HCV genotype 1b replicon, Rluc, 3 days; read-out: Replicon EC50 1b type

| Structure (SMILES) | EC50 [pM] |
| --- | --- |
| CCCCn1c2cc(NC(=O)[C@@H]3CCCN3C(=O)[C@H](NC(=O)OC)c3ccccc3)ccc2c2ccc(NC(=O)[C@@H]3CCCN3C(=O)[C@H](NC(=O)OC)c3ccccc3)cc21 [Example 1, dimethyl ((1R,1′R)-((2S,2′S)-(((9-butyl-9H-carbazole-2,7-diyl)bis(azanediyl))bis(carbonyl))bis(pyrrolidine-2,1-diyl))bis(2-oxo-1-phenylethane-2,1-diyl))dicarbamate] | 10.4 |
| CCCCn1c2cc(NC(=O)[C@@H]3CCCN3C(=O)[C@H](NC(=O)OC)C(C)C)ccc2c2ccc(NC(=O)[C@@H]3CCCN3C(=O)[C@H](NC(=O)OC)C(C)C)cc21 [Example 2, dimethyl ((2R,2′R)-((2S,2′S)-(((9-butyl-9H-carbazole-2,7-diyl)bis(azanediyl))bis(carbonyl))bis(pyrrolidine-2,1-diyl))bis(3-methyl-1-oxobutane-1,2-diyl))dicarbamate] | > 1000 |
| CCCCn1c2cc(NC(=O)C3CCCN3C(=O)[C@@H](NC(=O)OC)c3ccccc3)ccc2c2ccc(NC(=O)[C@@H]3CCCN3C(=O)[C@@H](NC(=O)OC)c3ccccc3)cc21 (stereo partly drawn) [Example 3, dimethyl ((1S,1′S)-((2S,2′S)-(((9-butyl-9H-carbazole-2,7-diyl)bis(azanediyl))bis(carbonyl))bis(pyrrolidine-2,1-diyl))bis(2-oxo-1-phenylethane-2,1-diyl))carbamate] | > 1000 |
| CCCCn1c2cc(NC(=O)[C@@H]3CCCN3C(=O)[C@@H](NC(=O)OC)C(C)C)ccc2c2ccc(NC(=O)[C@@H]3CCCN3C(=O)[C@@H](NC(=O)OC)C(C)C)cc21 [Example 4, dimethyl ((2S,2′S)-((2S,2′S)-(((9-butyl-9H-carbazole-2,7-diyl)bis(azanediyl))bis(carbonyl))bis(pyrrolidine-2,1-diyl))bis(3-methyl-1-oxobutane-1,2-diyl))dicarbamate] | 10000 to 100000 |
| CCCCn1c2cc(NC(=O)C3CCCN3C(=O)[C@H](C(C)C)N3CCOC3=O)ccc2c2ccc(NC(=O)[C@@H]3CCCN3C(=O)[C@H](C(C)C)N3CCOC3=O)cc21 (stereo partly drawn) [Example 5, (2S,2′S)—N,N′-(9-butyl-9H-carbazole-2,7-diyl)bis(1-((S)-3-methyl-3-2-(2-oxooxazolidine-3-yl)butanoyl)pyrrolidine-2-carboxamide)] | > 100000 |
| COC(=O)N[C@@H](C(=O)N1CCC[C@H]1C(=O)Nc1ccc2c3ccc(NC(=O)[C@@H]4CCCN4C(=O)[C@H](NC(=O)OC)c4ccccc4)cc3n(C)c2c1)c1ccccc1 [Example 6, dimethyl ((1R,1′R)-((2S,2′S)-(((9-methyl-9H-carbazole-2,7-diyl)bis(azanediyl))bis(carbonyl))bis(pyrrolidine-2,1-diyl))bis(2-oxo-1-phenylethane-2,1-diyl))dicarbamate] | 19.5 |
| COC(=O)N[C@@H](C(=O)N1CCC[C@H]1C(=O)Nc1ccc2c3ccc(NC(=O)[C@@H]4CCCN4C(=O)[C@H](NC(=O)OC)C(C)C)cc3n(C)c2c1)C(C)C [Example 7, dimethyl ((2R,2′R)-((2S,2′S)-(((9-methyl-9H-carbazole-2,7-diyl)bis(azanediyl))bis(carbonyl))bis(pyrrolidine-2,1-diyl))bis(3-methyl-1-oxobutane-1,2-diyl))dicarbamate] | > 1000 |
| COC(=O)N[C@H](C(=O)N1CCC[C@H]1C(=O)Nc1ccc2c3ccc(NC(=O)[C@@H]4CCCN4C(=O)[C@@H](NC(=O)OC)c4ccccc4)cc3n(C)c2c1)c1ccccc1 [Example 8, dimethyl ((1S,1′S)-((2S,2′S)-(((9-methyl-9H-carbazole-2,7-diyl)bis(azanediyl))bis(carbonyl))bis(pyrrolidine-2,1-diyl))bis(2-oxo-1-phenylethane-2,1-diyl))dicarbamate] | > 1000 |
| COC(=O)N[C@H](C(=O)N1CCC[C@H]1C(=O)Nc1ccc2c3ccc(NC(=O)[C@@H]4CCCN4C(=O)[C@@H](NC(=O)OC)C(C)C)cc3n(C)c2c1)C(C)C [Example 9, dimethyl ((2S,2′S)-((2S,2′S)-(((9-methyl-9H-carbazole-2,7-diyl)bis(azanediyl))bis(carbonyl))bis(pyrrolidine-2,1-diyl))bis(3-methyl-1-oxobutane-1,2-diyl))dicarbamate] | > 100000 |
| CC(C)[C@@H](C(=O)N1CCC[C@H]1C(=O)Nc1ccc2c3ccc(NC(=O)[C@@H]4CCCN4C(=O)[C@H](C(C)C)N4CCOC4=O)cc3n(C)c2c1)N1CCOC1=O [Example 10, (2S,2′S)—N,N′-(9-methyl-9H-carbazole-2,7-diyl)bis(1-((S)-3-methyl-2-(2-oxazolidine-3-yl)butanoyl)pyrrolidine-2-carboxamide)] | > 100000 |
| COC(=O)N[C@@H](C(=O)N1CCC[C@H]1C(=O)Nc1ccc2c3ccc(NC(=O)[C@@H]4CCCN4C(=O)[C@H](NC(=O)OC)c4ccccc4)cc3n(CCN3CCN(C)CC3)c2c1)c1ccccc1 [Example 11] | 10000 to 100000 |
| COC(=O)N[C@@H](C(=O)N1CCC[C@H]1C(=O)Nc1ccc2c3ccc(NC(=O)[C@@H]4CCCN4C(=O)[C@H](NC(=O)OC)c4ccccc4)cc3n(CCN3CCOCC3)c2c1)c1ccccc1 [Example 12, dimethyl ((1R,1′R)-((2S,2′S)-(((9-(2-morpholinoethyl)-9H-carbazole-2,7-diyl)bis(azanediyl))bis(carbonyl))bis(pyrrolidine-2,1-diyl))bis(2-oxo-1-phenylethane-2,1-diyl))carbamate] | 1000 to 10000 |
| COC(=O)N[C@@H](C(=O)N1CCC[C@H]1C(=O)Nc1ccc2c3ccc(NC(=O)[C@@H]4CCCN4C(=O)[C@H](NC(=O)OC)c4ccccc4)cc3n(Cc3ccccn3)c2c1)c1ccccc1 [Example 17, dimethyl ((1R,1′R)-((2S,2′S)-(((9-(pyridine-2-ylmethyl)-9H-carbazole-2,7-diyl)bis(azanediyl))bis(carbonyl))bis(pyrrolidine-2,1-diyl))bis(2-oxo-1-phenylethane-2,1-diyl))dicarbamate] | 50 to 250 |
| COC(=O)N[C@@H](C(=O)N1CCC[C@H]1C(=O)Nc1ccc2c3ccc(NC(=O)[C@@H]4CCCN4C(=O)[C@H](NC(=O)OC)c4ccccc4)cc3n(Cc3cccnc3)c2c1)c1ccccc1 [Example 18, dimethyl ((1R,1′R)-((2S,2′S)-(((9-(pyridine-3-ylmethyl)-9H-carbazole-2,7-diyl)bis(azanediyl))bis(carbonyl))bis(pyrrolidine-2,1-diyl))bis(2-oxo-1-phenylethane-2,1-diyl))dicarbamate] | 50 to 250 |
| COCCOCCOCCn1c2cc(NC(=O)[C@@H]3CCCN3C(=O)[C@H](NC(=O)OC)c3ccccc3)ccc2c2ccc(NC(=O)[C@@H]3CCCN3C(=O)[C@H](NC(=O)OC)c3ccccc3)cc21 [Example 23, dimethyl ((1R,1′R)-((2S,2′S)-(((9-(2-(2-(2-methoxyethoxy)ethoxy)ethyl)-9H-carbazole-2,7-diyl)bis(azanediyl))bis(carbonyl))bis(pyrrolidine-2,1-diyl))bis(2-oxo-1-phenylethane-2,1-diyl))dicarbamate] | > 1000 |
| CCCCCCCCCCn1c2cc(NC(=O)[C@@H]3CCCN3C(=O)[C@H](NC(=O)OC)C(C)C)ccc2c2ccc(NC(=O)[C@@H]3CCCN3C(=O)[C@H](NC(=O)OC)C(C)C)cc21 [Example 25, dimethyl ((2R,2′R)-((2S,2′S)-(((9-decyl-9H-carbazole-2,7-diyl)bis(azanediyl))bis(carbonyl))bis(pyrrolidine-2,1-diyl))bis(3-methyl-1-oxobutane-1,2-diyl))dicarbamate] | > 1000 |
| CCCCCCOc1ccccc1Cn1c2cc(NC(=O)[C@@H]3CCCN3C(=O)[C@H](NC(=O)OC)c3ccccc3)ccc2c2ccc(NC(=O)[C@@H]3CCCN3C(=O)[C@H](NC(=O)OC)c3ccccc3)cc21 [Example 35, dimethyl ((1R,1′R)-((2S,2′S)-(((9-(2-(hexyloxy)benzyl)-9H-carbazole-2,7-diyl)bis(azanediyl))bis(carbonyl))bis(pyrrolidine-2,1-diyl))bis(2-oxo-1-phenylethane-2,1-diyl))dicarbamate] | ~1000 |
| COCCOCCOc1cccc(Cn2c3cc(NC(=O)[C@@H]4CCCN4C(=O)[C@H](NC(=O)OC)c4ccccc4)ccc3c3ccc(NC(=O)[C@@H]4CCCN4C(=O)[C@H](NC(=O)OC)c4ccccc4)cc32)c1 [Example 40, dimethyl ((1R,1′R)-((2S,2′S)-(((9-(3-(2-(2-methoxyethoxy)ethoxy)benzyl)-9H-carbazole-2,7-diyl)bis(azanediyl))bis(carbonyl))bis(pyrrolidine-2,1-diyl))bis(2-oxo-1-phenylethane-2,1-diyl))dicarbamate] | 10 to 100 |
| CCCCC(CCCC)n1c2cc(NC(=O)[C@@H]3CCCN3C(=O)[C@H](NC(=O)OC)c3ccccc3)ccc2c2ccc(NC(=O)[C@@H]3CCCN3C(=O)[C@H](NC(=O)OC)c3ccccc3)cc21 [Example 46, dimethyl ((1R,1′R)-((2S,2′S)-(((9-(nonane-5-yl)-9H-carbazole-2,7-diyl)bis(azanediyl))bis(carbonyl))bis(pyrrolidine-2,1-diyl))bis(2-oxo-1-phenylethane-2,1-diyl))dicarbamate] | ~10 |
